Read-outs that look alike come from different tables or passages of the source.
System: IRF pathway in THP1-Dual™ cells, THP-1 (HAQ)
Assay: Reporter gene expression assay in THP-1 cells (THP1-Dual, IRF pathway Lucia luciferase reporter, 2′,3′-cGAMP stimulation)
Assay type: cell-based, human
Conditions: read-out: THP-1 (HAQ) Activity (IC50 value range)
Experimental: Reporter Gene Expression Assay in THP-1 Cells
THP1-Dual™ cells (Invivogen) were derived from the human THP-1 monocyte cell line by stable integration of two inducible reporter constructs. As a result, THP1-Dual™ cells allow the simultaneous study of the IRF pathway, by assessing the activity of a secreted luciferase (Lucia) and the NF-κB pathway, by monitoring the activity of secreted SEAP. 5×10^4 THP1-Dual™ cells were seeded in 384-well plates in growth medium and preincubated with novel compounds for 10 minutes followed by stimulation with 5 μM 2′,3′-cGAMP. After 20 hr of stimulation the supernatant was removed and the IRF pathway reporter protein was readily measured in the cell culture supernatant using QUANTI-Luc™ (Invivogen), a luciferase detection reagent on a Spectramax i3X luminometer.

[1] = THP1-Dual cells preincubated with compound 10 minutes, stimulation with 5 μM 2′,3′-cGAMP for 20 hr, QUANTI-Luc readout of the supernatant
[2] = Homo sapiens, THP1-Dual cells preincubated with compound 10 minutes, stimulation with 5 μM 2′,3′-cGAMP for 20 hr, QUANTI-Luc readout of the supernatant

Row | Structure (SMILES) | IC50 [2] [µM] | also measured
1 | CC1Sc2ccc(NC(=O)Nc3c[nH]c4ccccc34)cc2N(Cc2ccccc2)C1=O (stereo not drawn) [Example 35, 1-(4-benzyl-2-methyl-3-oxo-3,4-dihydro-2H-benzo[b][1,4]thiazin-6-yl)-3-(1H-indol-3-yl)urea] | – | IC50 [1]: < 1 µM
2 | CC1Sc2ccc(NC(=O)Nc3c[nH]c4ccccc34)cc2N(Cc2ccccc2)C1=O (stereo not drawn) [Example 36, 1-(4-benzyl-2-methyl-3-oxo-3,4-dihydro-2H-benzo[b][1,4]thiazin-6-yl)-3-(1H-indol-3-yl)urea] | – | IC50 [1]: < 1 µM
3 | N#Cc1ccc2[nH]cc(NC(=O)Nc3ccc4c(c3)N(Cc3ccccc3)C(=O)CS4)c2c1 [Example 37, 1-(4-benzyl-3-oxo-3,4-dihydro-2H-benzo[b][1,4]thiazin-6-yl)-3-(5-cyano-1H-indol-3-yl)urea] | < 1 | –
4 | O=C(Nc1ccc2c(c1)N(Cc1ccccc1)C(=O)CS2)Nc1c[nH]c2ccc(-c3ccn[nH]3)cc12 [Example 38, 1-(5-(1H-Pyrazol-5-yl)-1H-indol-3-yl)-3-(4-benzyl-3-oxo-3,4-dihydro-2H-benzo[b][1,4]thiazin-6-yl)urea] | – | IC50 (Homo sapiens): 1 to 10 µM
5 | O=C(Nc1ccc2c(c1)N(Cc1ccccc1)C(=O)CS2)Nc1c[nH]c2ccc(-c3cnco3)cc12 [Example 39, 1-(4-benzyl-3-oxo-3,4-dihydro-2H-benzo[b][1,4]thiazin-6-yl)-3-(5-(oxazol-5-yl)-1H-indol-3-yl)urea] | < 1 | –
6 | O=C(Nc1ccc2c(c1)N(Cc1ccccc1)C(=O)CS2)Nc1c[nH]c2ccc(-c3cc(F)cc(F)c3)cc12 [Example 40, 1-(4-benzyl-3-oxo-3,4-dihydro-2H-benzo[b][1,4]thiazin-6-yl)-3-(5-(3,5-difluorophenyl)-1H-indol-3-yl)urea] | < 1 | –
7 | Cc1ncc(-c2ccc3[nH]cc(NC(=O)Nc4ccc5c(c4)N(Cc4ccccc4)C(=O)CS5)c3c2)o1 [Example 41, 1-(4-benzyl-3-oxo-3,4-dihydro-2H-benzo[b][1,4]thiazin-6-yl)-3-(5-(2-methyloxazol-5-yl)-1H-indol-3-yl)urea] | 1 to 10 | –
8 | O=C(Nc1ccc2c(c1)N(Cc1ccccc1)C(=O)CS2)Nc1c[nH]c2ccc(-c3cnsc3)cc12 [Example 42, 1-(4-benzyl-3-oxo-3,4-dihydro-2H-benzo[b][1,4]thiazin-6-yl)-3-(5-(isothiazol-4-yl)-1H-indol-3-yl)urea] | < 1 | –
9 | O=C(Nc1ccc2c(c1)N(Cc1ccccc1)C(=O)CS2)Nc1c[nH]c2ccc(-c3cccc(CO)c3)cc12 [Example 43, 1-(4-benzyl-3-oxo-3,4-dihydro-2H-benzo[b][1,4]thiazin-6-yl)-3-(5-(3-(hydroxymethyl)phenyl)-1H-indol-3-yl)urea] | < 1 | –
10 | O=C(Nc1ccc2c(c1)N(Cc1ccccc1)C(=O)CS2)Nc1c[nH]c2ccc(-c3cn[nH]c3)cc12 [Example 44, 1-(5-(1H-pyrazol-4-yl)-1H-indol-3-yl)-3-(4-benzyl-3-oxo-3,4-dihydro-2H-benzo[b][1,4]thiazin-6-yl)urea] | 1 to 10 | –
11 | N#Cc1cccc(-c2ccc3[nH]cc(NC(=O)Nc4ccc5c(c4)N(Cc4ccccc4)C(=O)CS5)c3c2)c1 [Example 45, 1-(4-benzyl-3-oxo-3,4-dihydro-2H-benzo[b][1,4]thiazin-6-yl)-3-(5-(3-cyanophenyl)-1H-indol-3-yl)urea] | < 1 | –
12 | O=C(Nc1ccc2c(c1)N(Cc1ccccc1)C(=O)CS2)Nc1c[nH]c2ccc(-c3cnn(CCO)c3)cc12 [Example 46, 1-(4-benzyl-3-oxo-3,4-dihydro-2H-benzo[b][1,4]thiazin-6-yl)-3-(5-(1-(2-hydroxyethyl)-1H-pyrazol-4-yl)-1H-indol-3-yl)urea] | 1 to 10 | –
13 | CCn1cc(-c2ccc3[nH]cc(NC(=O)Nc4ccc5c(c4)N(Cc4ccccc4)C(=O)CS5)c3c2)cn1 [Example 47, 1-(4-benzyl-3-oxo-3,4-dihydro-2H-benzo[b][1,4]thiazin-6-yl)-3-(5-(1-ethyl-1H-pyrazol-4-yl)-1H-indol-3-yl)urea] | < 1 | –
14 | NC(=O)c1cccc(-c2ccc3[nH]cc(NC(=O)Nc4ccc5c(c4)N(Cc4ccccc4)C(=O)CS5)c3c2)c1 [Example 48, 3-(3-(3-(4-benzyl-3-oxo-3,4-dihydro-2H-benzo[b][1,4]thiazin-6-yl)ureido)-1H-indol-5-yl)benzamide] | 1 to 10 | –
15 | COCCn1cc(-c2ccc3[nH]cc(NC(=O)Nc4ccc5c(c4)N(Cc4ccccc4)C(=O)CS5)c3c2)cn1 [Example 49, 1-(4-benzyl-3-oxo-3,4-dihydro-2H-benzo[b][1,4]thiazin-6-yl)-3-(5-(1-(2-methoxyethyl)-1H-pyrazol-4-yl)-1H-indol-3-yl)urea] | 1 to 10 | –
16 | O=C(Nc1ccc2c(c1)N(Cc1ccccc1)C(=O)CS2)Nc1c[nH]c2ccc(-c3cnn(C(F)F)c3)cc12 [Example 50, 1-(4-benzyl-3-oxo-3,4-dihydro-2H-benzo[b][1,4]thiazin-6-yl)-3-(5-(1-(difluoromethyl)-1H-pyrazol-4-yl)-1H-indol-3-yl)urea] | < 1 | –
17 | O=C(Nc1ccc2c(c1)N(Cc1ccccc1)C(=O)CS2)Nc1c[nH]c2ccc(-c3ccncc3)cc12 [Example 51, 1-(4-benzyl-3-oxo-3,4-dihydro-2H-benzo[b][1,4]thiazin-6-yl)-3-(5-(pyridin-4-yl)-1H-indol-3-yl)urea] | < 1 | –
18 | N#CCCn1cc(-c2ccc3[nH]cc(NC(=O)Nc4ccc5c(c4)N(Cc4ccccc4)C(=O)CS5)c3c2)cn1 [Example 52, 1-(4-benzyl-3-oxo-3,4-dihydro-2H-benzo[b][1,4]thiazin-6-yl)-3-(5-(1-(2-cyanoethyl)-1H-pyrazol-4-yl)-1H-indol-3-yl)urea] | 1 to 10 | –
19 | COc1cccc(-c2ccc3[nH]cc(NC(=O)Nc4ccc5c(c4)N(Cc4ccccc4)C(=O)CS5)c3c2)c1 [Example 53, 1-(4-benzyl-3-oxo-3,4-dihydro-2H-benzo[b][1,4]thiazin-6-yl)-3-(5-(3-methoxyphenyl)-1H-indol-3-yl)urea] | < 1 | –
20 | CS(=O)(=O)c1cccc(-c2ccc3[nH]cc(NC(=O)Nc4ccc5c(c4)N(Cc4ccccc4)C(=O)CS5)c3c2)c1 [Example 54, 1-(4-benzyl-3-oxo-3,4-dihydro-2H-benzo[b][1,4]thiazin-6-yl)-3-(5-(3-(methylsulfonyl)phenyl)-1H-indol-3-yl)urea] | 1 to 10 | –
21 | O=C(Nc1ccc2c(c1)N(Cc1ccccc1)C(=O)CS2)Nc1c[nH]c2ccc(-c3cccnc3)cc12 [Example 55, 1-(4-benzyl-3-oxo-3,4-dihydro-2H-benzo[b][1,4]thiazin-6-yl)-3-(5-(pyridin-3-yl)-1H-indol-3-yl)urea] | < 1 | –
22 | O=C(Nc1ccc2c(c1)N(Cc1ccccc1)C(=O)CS2)Nc1c[nH]c2ccc(-c3cncnc3)cc12 [Example 56, 1-(4-benzyl-3-oxo-3,4-dihydro-2H-benzo[b][1,4]thiazin-6-yl)-3-(5-(pyrimidin-5-yl)-1H-indol-3-yl)urea] | < 1 | –
23 | O=C(Nc1ccc2c(c1)N(Cc1ccccc1)C(=O)CS2)Nc1c[nH]c2ccc(-c3cncc(Cl)c3)cc12 [Example 57, 1-(4-benzyl-3-oxo-3,4-dihydro-2H-benzo[b][1,4]thiazin-6-yl)-3-(5-(5-chloropyridin-3-yl)-1H-indol-3-yl)urea] | < 1 | –
24 | O=C(Nc1ccc2c(c1)N(Cc1ccccc1)C(=O)CS2)Nc1c[nH]c2ccc(-c3cccc(OC(F)(F)F)c3)cc12 [Example 58, 1-(4-benzyl-3-oxo-3,4-dihydro-2H-benzo[b][1,4]thiazin-6-yl)-3-(5-(3-(trifluoromethoxy)phenyl)-1H-indol-3-yl)urea] | < 1 | –
25 | CC(C)n1cc(-c2ccc3[nH]cc(NC(=O)Nc4ccc5c(c4)N(Cc4ccccc4)C(=O)CS5)c3c2)cn1 [Example 59, 1-(4-benzyl-3-oxo-3,4-dihydro-2H-benzo[b][1,4]thiazin-6-yl)-3-(5-(1-isopropyl-1H-pyrazol-4-yl)-1H-indol-3-yl)urea] | < 1 | –
26 | O=C(Nc1ccc2c(c1)N(Cc1ccccc1)C(=O)CS2)Nc1c[nH]c2ccc(-c3cnn(CC4CC4)c3)cc12 [Example 60, 1-(4-benzyl-3-oxo-3,4-dihydro-2H-benzo[b][1,4]thiazin-6-yl)-3-(5-(1-(cyclopropylmethyl)-1H-pyrazol-4-yl)-1H-indol-3-yl)urea] | < 1 | –
27 | O=C(Nc1ccc2c(c1)N(Cc1ccccc1)C(=O)CS2)Nc1c[nH]c2ccc(-c3cncc(CO)c3)cc12 [Example 61, 1-(4-benzyl-3-oxo-3,4-dihydro-2H-benzo[b][1,4]thiazin-6-yl)-3-(5-(5-(hydroxymethyl)pyridin-3-yl)-1H-indol-3-yl)urea] | 1 to 10 | –
28 | O=C1Cc2ccc(-c3ccc4[nH]cc(NC(=O)Nc5ccc6c(c5)N(Cc5ccccc5)C(=O)CS6)c4c3)cc2N1 [Example 62, 1-(4-benzyl-3-oxo-3,4-dihydro-2H-benzo[b][1,4]thiazin-6-yl)-3-(5-(2-oxoindolin-6-yl)-1H-indol-3-yl)urea] | < 1 | –
29 | O=C(Nc1ccc2c(c1)N(Cc1ccccc1)C(=O)CS2)Nc1c[nH]c2ccc(-c3ccc(O)nc3)cc12 [Example 63, 1-(4-benzyl-3-oxo-3,4-dihydro-2H-benzo[b][1,4]thiazin-6-yl)-3-(5-(6-hydroxypyridin-3-yl)-1H-indol-3-yl)urea] | 1 to 10 | –
30 | O=C(Nc1ccc2c(c1)N(Cc1ccccc1)C(=O)CS2)Nc1c[nH]c2ccc(-c3cncs3)cc12 [Example 64, 1-(4-benzyl-3-oxo-3,4-dihydro-2H-benzo[b][1,4]thiazin-6-yl)-3-(5-(thiazol-5-yl)-1H-indol-3-yl)urea] | < 1 | –
